Assay results taken from ChEMBL document CHEMBL3045592, “Studies of O,O-dimethyl α-(2,4-dichlorophenoxyacetoxy)ethylphosphonate (HW02) as a new herbicide. 1. Synthesis and herbicidal activity of HW02 and analogues as novel inhibitors of pyruvate dehydrogenase complex” (J Agric Food Chem, 2011).
pIC50: −log10 of the molar value.

Tests used:
Digitaria sanguinalis [1] = experiment: Pre-emergence herbicidal activity against Digitaria sanguinalis (hairy crabgrass) assessed as growth inhibition at 150 ai g/ha after 20 days by green house test; assay type: functional
Digitaria sanguinalis [2] = experiment: Post-emergence herbicidal activity against Digitaria sanguinalis (hairy crabgrass) assessed as growth inhibition at 450 ai g/ha after 20 days by green house test; assay type: functional
Abutilon theophrasti [3] = experiment: Post-emergence herbicidal activity against Abutilon theophrasti (velvetleaf) assessed as growth inhibition at 150 ai g/ha after 20 days by green house test; assay type: functional
Digitaria sanguinalis [4] = experiment: Pre-emergence herbicidal activity against Digitaria sanguinalis (hairy crabgrass) assessed as growth inhibition at 450 ai g/ha after 20 days by green house test; assay type: functional
Chenopodium album [5] = experiment: Post-emergence herbicidal activity against Chenopodium album assessed as growth inhibition at 150 ai g/ha after 20 days by green house test; assay type: functional
Digitaria sanguinalis [6] = experiment: Post-emergence herbicidal activity against Digitaria sanguinalis (hairy crabgrass) assessed as growth inhibition at 1500 ai g/ha after 20 days by green house test; assay type: functional
Medicago sativa [7] = experiment: Post-emergence herbicidal activity against Medicago sativa (alfalfa) assessed as growth inhibition at 1500 ai g/ha after 20 days by green house test; assay type: functional
[8] = test system: Brassica rapa subsp. oleifera; experiment: Pre-emergence herbicidal activity against Brassica rapa subsp. oleifera Si Yue Man assessed as growth inhibition at 1500 ai g/ha after 20 days by green house test; assay type: functional
Digitaria sanguinalis [9] = experiment: Post-emergence herbicidal activity against Digitaria sanguinalis (hairy crabgrass) assessed as growth inhibition at 150 ai g/ha after 20 days by green house test; assay type: functional
Abutilon theophrasti [10] = experiment: Pre-emergence herbicidal activity against Abutilon theophrasti (velvetleaf) assessed as growth inhibition at 150 ai g/ha after 20 days by green house test; assay type: functional
Abutilon theophrasti [11] = experiment: Pre-emergence herbicidal activity against Abutilon theophrasti (velvetleaf) assessed as growth inhibition at 450 ai g/ha after 20 days by green house test; assay type: functional
Amaranthus spinosus [12] = experiment: Post-emergence herbicidal activity against Amaranthus spinosus assessed as growth inhibition at 450 ai g/ha after 20 days by green house test; assay type: functional
Echinochloa crus-galli [13] = experiment: Pre-emergence herbicidal activity against Echinochloa crus-galli (barnyard grass) assessed as growth inhibition at 1500 ai g/ha after 20 days by green house test; assay type: functional
Abutilon theophrasti [14] = experiment: Post-emergence herbicidal activity against Abutilon theophrasti (velvetleaf) assessed as growth inhibition at 450 ai g/ha after 20 days by green house test; assay type: functional
Setaria viridis [15] = experiment: Pre-emergence herbicidal activity against Setaria viridis (green foxtail) assessed as growth inhibition at 450 ai g/ha after 20 days by green house test; assay type: functional
Digitaria sanguinalis [16] = experiment: Pre-emergence herbicidal activity against Digitaria sanguinalis (hairy crabgrass) assessed as growth inhibition at 1500 ai g/ha after 20 days by green house test; assay type: functional
Chenopodium album [17] = experiment: Pre-emergence herbicidal activity against Chenopodium album assessed as growth inhibition at 150 ai g/ha after 20 days by green house test; assay type: functional
Echinochloa crus-galli [18] = experiment: Post-emergence herbicidal activity against Echinochloa crus-galli (barnyard grass) assessed as growth inhibition at 1500 ai g/ha after 20 days by green house test; assay type: functional
Chenopodium album [19] = experiment: Post-emergence herbicidal activity against Chenopodium album assessed as growth inhibition at 450 ai g/ha after 20 days by green house test; assay type: functional
Amaranthus spinosus [20] = experiment: Pre-emergence herbicidal activity against Amaranthus spinosus assessed as growth inhibition at 450 ai g/ha after 20 days by green house test; assay type: functional
Amaranthus spinosus [21] = experiment: Pre-emergence herbicidal activity against Amaranthus spinosus assessed as growth inhibition at 150 ai g/ha after 20 days by green house test; assay type: functional
Setaria viridis [22] = experiment: Post-emergence herbicidal activity against Setaria viridis (green foxtail) assessed as growth inhibition at 450 ai g/ha after 20 days by green house test; assay type: functional
Setaria viridis [23] = experiment: Pre-emergence herbicidal activity against Setaria viridis (green foxtail) assessed as growth inhibition at 150 ai g/ha after 20 days by green house test; assay type: functional
Amaranthus spinosus [24] = experiment: Post-emergence herbicidal activity against Amaranthus spinosus assessed as growth inhibition at 150 ai g/ha after 20 days by green house test; assay type: functional
Chenopodium album [25] = experiment: Pre-emergence herbicidal activity against Chenopodium album assessed as growth inhibition at 450 ai g/ha after 20 days by green house test; assay type: functional
Amaranthus retroflexus [26] = experiment: Post-emergence herbicidal activity against Amaranthus retroflexus assessed as growth inhibition at 1500 ai g/ha after 20 days by green house test; assay type: functional
[27] = test system: Brassica rapa subsp. oleifera; experiment: Post-emergence herbicidal activity against Brassica rapa subsp. oleifera Si Yue Man assessed as growth inhibition at 1500 ai g/ha after 20 days by green house test; assay type: functional
Medicago sativa [28] = experiment: Pre-emergence herbicidal activity against Medicago sativa (alfalfa) assessed as growth inhibition at 1500 ai g/ha after 20 days by green house test; assay type: functional
Setaria viridis [29] = experiment: Post-emergence herbicidal activity against Setaria viridis (green foxtail) assessed as growth inhibition at 150 ai g/ha after 20 days by green house test; assay type: functional
Amaranthus retroflexus [30] = experiment: Pre-emergence herbicidal activity against Amaranthus retroflexus assessed as growth inhibition at 1500 ai g/ha after 20 days by green house test; assay type: functional
Chenopodium album [31] = experiment: Post-emergence herbicidal activity against Chenopodium album assessed as growth inhibition at 75 ai g/ha after 20 days by green house test; assay type: functional
Pisum sativum = experiment: Post-emergence herbicidal activity against Pisum sativum Zhongwan-2 (pea) assessed as growth inhibition at 450 ai g/ha after 20 days by green house test; details: Lathyrus oleraceus
Echinochloa crus-galli [32] = experiment: Post-emergence herbicidal activity against Echinochloa crus-galli (barnyard grass) assessed as growth inhibition at 450 ai g/ha after 20 days by green house test; assay type: functional
Setaria viridis [33] = experiment: Pre-emergence herbicidal activity against Setaria viridis (green foxtail) assessed as growth inhibition at 75 ai g/ha after 20 days by green house test; assay type: functional
[34] = Toxicity against Oryza sativa (rice) assessed as growth inhibition at 450 ai g/ha post-emergent application measured after 20 days by green house crop selectivity test; assay type: organism-based; details: in vivo, read-out: GI
Abutilon theophrasti [35] = experiment: Pre-emergence herbicidal activity against Abutilon theophrasti (velvetleaf) assessed as growth inhibition at 75 ai g/ha after 20 days by green house test; assay type: functional
Chenopodium album [36] = experiment: Pre-emergence herbicidal activity against Chenopodium album assessed as growth inhibition at 75 ai g/ha after 20 days by green house test; assay type: functional
Brassica juncea = experiment: Post-emergence herbicidal activity against Brassica juncea assessed as growth inhibition at 450 ai g/ha after 20 days by green house test; assay type: functional
Amaranthus spinosus [37] = experiment: Pre-emergence herbicidal activity against Amaranthus spinosus assessed as growth inhibition at 75 ai g/ha after 20 days by green house test; assay type: functional
[38] = biological target: Pyruvate dehydrogenase complex (Vigna radiata var. radiata); experiment: Inhibition of PDHc in Vigna radiata var. radiata VC2778A shoot mitochondria assessed as decrease in rate of NADH formation using sodium pyruvate as substrate preincubated for 25 min before substrate addition measured after 1 min by spectrophotometric assay; assay type: protein-complex assay
Amaranthus spinosus [39] = experiment: Post-emergence herbicidal activity against Amaranthus spinosus assessed as growth inhibition at 75 ai g/ha after 20 days by green house test; assay type: functional
Cucumis sativus [40] = experiment: Herbicidal activity against Cucumis sativus Jin 4 (cucumber) assessed as inhibition of root growth after 3 days; assay type: functional, organism-based; details: Jin 4, 72 h
Digitaria sanguinalis [41] = experiment: Pre-emergence herbicidal activity against Digitaria sanguinalis (hairy crabgrass) assessed as growth inhibition at 75 ai g/ha after 20 days by green house test; assay type: functional
Cucumis sativus [42] = experiment: Herbicidal activity against Cucumis sativus Jin 4 (cucumber) assessed as inhibition of stem growth after 3 days; assay type: functional, organism-based; details: Jin 4, 72 h
Amaranthus retroflexus [43] = experiment: Post-emergence herbicidal activity against Amaranthus retroflexus assessed as growth inhibition at 450 ai g/ha after 20 days by green house test; assay type: functional
Digitaria sanguinalis [44] = experiment: Post-emergence herbicidal activity against Digitaria sanguinalis (hairy crabgrass) assessed as growth inhibition at 75 ai g/ha after 20 days by green house test; assay type: functional
Setaria viridis [45] = experiment: Post-emergence herbicidal activity against Setaria viridis (green foxtail) assessed as growth inhibition at 75 ai g/ha after 20 days by green house test; assay type: functional
Abutilon theophrasti [46] = experiment: Post-emergence herbicidal activity against Abutilon theophrasti (velvetleaf) assessed as growth inhibition at 75 ai g/ha after 20 days by green house test; assay type: functional

For `COP(=O)(OC)C(C)OC(=O)COc1ccc(Cl)cc1C` (stereo not drawn), the “growth inhibition (GI)” value (Digitaria sanguinalis [1]) was 0%, the “growth inhibition (GI)” value (Digitaria sanguinalis [2]) was 10% and the “growth inhibition (GI)” value (Abutilon theophrasti [3]) was 82%. For the same molecule, the “growth inhibition (GI)” value (Digitaria sanguinalis [4]) was 16%, the “growth inhibition (GI)” value (Chenopodium album [5]) was 60% and the “growth inhibition (GI)” value (Digitaria sanguinalis [6]) was 50%. The “growth inhibition (GI)” value (Medicago sativa [7]) was 50%, the “growth inhibition (GI)” value [8] was 90% and the “growth inhibition (GI)” value (Digitaria sanguinalis [9]) was 0%. The “growth inhibition (GI)” value (Abutilon theophrasti [10]) was 0%, the “growth inhibition (GI)” value (Abutilon theophrasti [11]) was 0% and the “growth inhibition (GI)” value (Amaranthus spinosus [12]) was 100%. For the same molecule, the “growth inhibition (GI)” value (Echinochloa crus-galli [13]) was 90%, the “growth inhibition (GI)” value (Abutilon theophrasti [14]) was 96% and the “growth inhibition (GI)” value (Setaria viridis [15]) was 0%. For the same molecule, the “growth inhibition (GI)” value (Digitaria sanguinalis [16]) was 90%, the “growth inhibition (GI)” value (Chenopodium album [17]) was 0% and the “growth inhibition (GI)” value (Echinochloa crus-galli [18]) was 50%. The “growth inhibition (GI)” value (Chenopodium album [19]) was 80%, the “growth inhibition (GI)” value (Amaranthus spinosus [20]) was 30% and the “growth inhibition (GI)” value (Amaranthus spinosus [21]) was 0%. The “growth inhibition (GI)” value (Setaria viridis [22]) was 0%, the “growth inhibition (GI)” value (Setaria viridis [23]) was 0% and the “growth inhibition (GI)” value (Amaranthus spinosus [24]) was 10%. The “growth inhibition (GI)” value (Chenopodium album [25]) was 0%, the “growth inhibition (GI)” value (Amaranthus retroflexus [26]) was 90% and the “growth inhibition (GI)” value [27] was 90%. For the same molecule, the “growth inhibition (GI)” value (Medicago sativa [28]) was 90%, the “growth inhibition (GI)” value (Setaria viridis [29]) was 0% and the “growth inhibition (GI)” value (Amaranthus retroflexus [30]) was 90%.

With `COP(=O)(COC(=O)COc1ccc(Cl)cc1Cl)OC` the “growth inhibition (GI)” value (Chenopodium album [31]) was 82.5%, the “growth inhibition (GI)” value (Digitaria sanguinalis [1]) was 0% and the growth inhibition (GI) (Pisum sativum) was 87.5%. The “growth inhibition (GI)” value (Digitaria sanguinalis [2]) was 0%, the “growth inhibition (GI)” value (Abutilon theophrasti [3]) was 99% and the “growth inhibition (GI)” value (Echinochloa crus-galli [32]) was 0%. The “growth inhibition (GI)” value (Setaria viridis [33]) was 0%, the “growth inhibition (GI)” value (Digitaria sanguinalis [4]) was 0% and the “growth inhibition (GI)” value (Chenopodium album [5]) was 99.5%. The inhibition at 480 h [34] was 0%, the “growth inhibition (GI)” value (Digitaria sanguinalis [6]) was “<=50%” and the “growth inhibition (GI)” value (Medicago sativa [7]) was 90%. For the same molecule, the “growth inhibition (GI)” value (Abutilon theophrasti [35]) was 0%, the “growth inhibition (GI)” value [8] was 90% and the “growth inhibition (GI)” value (Chenopodium album [36]) was 0%. For the same molecule, the “growth inhibition (GI)” value (Digitaria sanguinalis [9]) was 0%, the “growth inhibition (GI)” value (Abutilon theophrasti [10]) was 0% and the “growth inhibition (GI)” value (Abutilon theophrasti [11]) was 47.5%. For the same molecule, the “growth inhibition (GI)” value (Amaranthus spinosus [12]) was 97.5%, the “growth inhibition (GI)” value (Brassica juncea) was 100% and the “growth inhibition (GI)” value (Echinochloa crus-galli [13]) was “<=50%”. For the same molecule, the “growth inhibition (GI)” value (Amaranthus spinosus [37]) was 0%, the “growth inhibition (GI)” value (Abutilon theophrasti [14]) was 100% and the “growth inhibition (GI)” value (Setaria viridis [15]) was 5%. For the same molecule, the “growth inhibition (GI)” value (Digitaria sanguinalis [16]) was 90%, the “growth inhibition (GI)” value (Chenopodium album [17]) was 0% and the “growth inhibition (GI)” value (Echinochloa crus-galli [18]) was “<=50%”. The “growth inhibition (GI)” value (Chenopodium album [19]) was 100%, the “growth inhibition (GI)” value (Amaranthus spinosus [20]) was 52.5% and the “growth inhibition (GI)” value (Amaranthus spinosus [21]) was 0%. The pIC50 [38] was 4.71, the “growth inhibition (GI)” value (Setaria viridis [22]) was 0% and the “growth inhibition (GI)” value (Amaranthus spinosus [39]) was 62.5%. For the same molecule, the pIC50 (Cucumis sativus [40]) was 7.24, the “growth inhibition (GI)” value (Setaria viridis [23]) was 0% and the “growth inhibition (GI)” value (Digitaria sanguinalis [41]) was 0%. For the same molecule, the “growth inhibition (GI)” value (Amaranthus spinosus [24]) was 92.5%, the pIC50 (Cucumis sativus [42]) was 5.11 and the “growth inhibition (GI)” value (Chenopodium album [25]) was 52.5%. For the same molecule, the “growth inhibition (GI)” value (Amaranthus retroflexus [26]) was 90%, the “growth inhibition (GI)” value (Amaranthus retroflexus [43]) was 97.5% and the “growth inhibition (GI)” value [27] was 90%. For the same molecule, the “growth inhibition (GI)” value (Medicago sativa [28]) was 75%, the “growth inhibition (GI)” value (Setaria viridis [29]) was 0% and the “growth inhibition (GI)” value (Digitaria sanguinalis [44]) was 0%. The “growth inhibition (GI)” value (Amaranthus retroflexus [30]) was 90%, the “growth inhibition (GI)” value (Setaria viridis [45]) was 0% and the “growth inhibition (GI)” value (Abutilon theophrasti [46]) was 82.5%.
